pKi: −log10 of the molar value. ≈ marks a conversion by molar mass, not a printed value.
Assays:
Adenosine receptor A2b = molecular target: T1, Adenosine receptor A2b (Homo sapiens, UniProt P29275); assay: Antagonist activity at recombinant human adenosine A2B receptor expressed in CHOK1 cell membrane assessed as inhibition of NECA-stimulated adenylyl cyclase activity incubated for 20 mins in presence of [alpha32P]ATP; type: functional, cell-based, CHO-K1
T1 sequence (P29275 whole entry): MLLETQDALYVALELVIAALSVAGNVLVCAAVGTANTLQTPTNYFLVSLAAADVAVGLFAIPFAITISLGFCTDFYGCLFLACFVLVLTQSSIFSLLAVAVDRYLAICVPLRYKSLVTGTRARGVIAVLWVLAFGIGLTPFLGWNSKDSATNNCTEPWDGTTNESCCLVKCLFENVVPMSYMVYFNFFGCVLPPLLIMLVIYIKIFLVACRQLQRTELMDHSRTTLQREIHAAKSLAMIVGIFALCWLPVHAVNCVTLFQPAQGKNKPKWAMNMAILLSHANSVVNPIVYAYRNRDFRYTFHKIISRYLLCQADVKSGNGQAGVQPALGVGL

Adenosine receptor A2a [1] = molecular target: T2, Adenosine receptor A2a (Homo sapiens, UniProt P29274); assay: Partial agonist activity at recombinant human adenosine A2A receptor expressed in CHOK1 cell membrane assessed as adenylyl cyclase activity at 1 to 100 uM incubated for 20 mins in presence of [alpha32P]ATP relative to NECA; type: functional, cell-based; conditions: CHO-K1
Adenosine receptor A1 = molecular target: T3, Adenosine receptor A1 (Homo sapiens, UniProt P30542); assay: Displacement of [3H]CCPA from recombinant human adenosine A1 receptor expressed in CHO cell membrane after 3 hrs by microbeta scintillation counting method; type: cell membranes
T3 sequence (P30542 whole entry): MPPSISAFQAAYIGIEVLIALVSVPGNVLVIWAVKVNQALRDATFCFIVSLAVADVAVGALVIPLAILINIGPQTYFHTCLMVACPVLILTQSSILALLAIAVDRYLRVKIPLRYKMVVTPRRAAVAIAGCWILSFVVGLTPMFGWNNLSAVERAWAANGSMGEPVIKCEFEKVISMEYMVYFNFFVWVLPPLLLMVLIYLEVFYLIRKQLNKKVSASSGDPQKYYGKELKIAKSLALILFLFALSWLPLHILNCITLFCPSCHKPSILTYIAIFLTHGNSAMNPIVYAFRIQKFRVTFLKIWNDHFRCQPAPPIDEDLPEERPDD

Adenosine receptor A3 = molecular target: T4, Adenosine receptor A3 (Homo sapiens, UniProt P0DMS8); assay: biochemical
T4 sequence (P0DMS8 whole entry): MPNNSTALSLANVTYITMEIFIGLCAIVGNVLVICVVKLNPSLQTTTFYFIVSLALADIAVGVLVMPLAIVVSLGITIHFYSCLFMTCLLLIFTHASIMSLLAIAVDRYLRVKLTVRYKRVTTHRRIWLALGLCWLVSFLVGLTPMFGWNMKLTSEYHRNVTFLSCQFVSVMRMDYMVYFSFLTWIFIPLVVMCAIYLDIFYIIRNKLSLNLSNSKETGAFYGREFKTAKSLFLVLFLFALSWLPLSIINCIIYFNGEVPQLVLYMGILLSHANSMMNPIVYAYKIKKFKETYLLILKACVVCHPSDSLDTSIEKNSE
Description: Displacement of [3H]HEMADO from recombinant human adenosine A3 receptor expressed in CHO cell membrane after 3 hrs by microbeta scintillation counting method

Adenosine receptor A2a [2] = molecular target: T2, Adenosine receptor A2a; assay: Displacement of [3H]NECA from recombinant human adenosine A2A receptor expressed in CHO cell membrane after 3 hrs by microbeta scintillation counting method; type: cell membranes
Adenosine receptor A2a [3] = molecular target: T2, Adenosine receptor A2a; assay: Partial agonist activity at recombinant human adenosine A2A receptor expressed in CHOK1 cell membrane assessed as adenylyl cyclase activity at 100 uM incubated for 20 mins in presence of [alpha32P]ATP relative to NECA; type: functional, cell-based; conditions: CHO-K1
[4] = Thermodynamic equilibrium solubility of compound in water at 1 to 300 ug after overnight incubation by microplate reader analysis; type: physicochemical; conditions: read-out: Therm_solubility
CHO [5] = assay: Selectivity ratio of Ki for recombinant human adenosine A3 receptor expressed in CHO cell membrane to Ki for recombinant human adenosine A2A receptor expressed in CHO cell membrane; type: cell-based
CHO [6] = assay: Selectivity ratio of Ki for recombinant human adenosine A1 receptor expressed in CHO cell membrane to Ki for recombinant human adenosine A2A receptor expressed in CHO cell membrane; type: cell-based
[7] = Thermodynamic equilibrium solubility of compound in simulated gastric fluid at 1 to 300 ug after overnight incubation by microplate reader analysis; type: ADME; conditions: read-out: Therm_solubility
[8] = Thermodynamic equilibrium solubility of compound in phosphate buffered saline at 1 to 300 ug after overnight incubation by microplate reader analysis; type: physicochemical; conditions: read-out: Therm_solubility

T2 sequence (P29274 whole entry): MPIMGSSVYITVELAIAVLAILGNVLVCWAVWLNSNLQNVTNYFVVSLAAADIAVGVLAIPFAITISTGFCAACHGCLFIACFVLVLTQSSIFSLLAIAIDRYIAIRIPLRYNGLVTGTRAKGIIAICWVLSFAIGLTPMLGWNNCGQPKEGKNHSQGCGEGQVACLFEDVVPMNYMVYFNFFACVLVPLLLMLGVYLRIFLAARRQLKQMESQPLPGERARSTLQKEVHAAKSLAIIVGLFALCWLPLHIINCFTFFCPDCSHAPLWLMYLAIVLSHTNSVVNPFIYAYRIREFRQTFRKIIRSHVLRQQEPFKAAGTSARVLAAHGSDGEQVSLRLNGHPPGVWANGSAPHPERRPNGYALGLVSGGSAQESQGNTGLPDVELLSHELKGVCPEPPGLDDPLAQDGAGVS

SMILES	pKi (Adenosine receptor A2b)	Efficacy (Adenosine receptor A2a [1]) [%]	pKi (Adenosine receptor A1)	pKi (Adenosine receptor A3)	pKi (Adenosine receptor A2a [2])	Efficacy (Adenosine receptor A2a [3]) [%]	solubility thermodynamic [4] [µg/mL]	Ratio Ki (CHO [5])	Ratio Ki (CHO [6])	solubility thermodynamic [7] [µg/mL]	solubility thermodynamic [8] [µg/mL]
c1ccc(Nc2nc3c(N4CCCC4)ncnc3s2)cc1	< 5.00	10	< 4.52	5.06	6.45	–	–	–	–	–	–
CCN(CC)c1ncnc2sc(Nc3ccc(Cl)cc3)nc12	< 5.00	–	4.78	5.41	4.95	–	–	–	–	–	–
Clc1ncnc2sc(Nc3cccc(Br)c3)nc12	< 5.00	–	4.90	5.41	5.53	–	–	–	–	–	–
Clc1ncnc2sc(NCCN3CCOCC3)nc12	< 5.00	–	< 4.00	< 4.00	< 4.00	–	–	–	–	–	–
OC[C@@H]1CCCN1c1ncnc2sc(Nc3ccc(Cl)cc3)nc12	< 5.00	–	6.20	6.03	6.33	50	–	–	–	–	–
CCN(CC)c1ncnc2sc(Nc3ccccc3)nc12	< 5.00	–	< 4.00	< 4.52	5.66	–	–	–	–	–	–
COc1ccc(Nc2nc3c(N4CCC[C@H]4CO)ncnc3s2)cc1	< 5.00	–	6.15	6.23	5.95	–	–	–	–	–	–
Fc1cccc(F)c1Nc1nc2c(Cl)ncnc2s1	< 5.00	–	4.75	4.76	5.09	–	–	–	–	–	–
Clc1ccc(Nc2nc3c(N4CCCC4)ncnc3s2)cc1	< 5.00	10	< 4.00	5.37	5.69	–	–	–	–	–	–
Clc1ccc(Nc2nc3c(N4CCOCC4)ncnc3s2)cc1	< 5.00	–	< 4.00	< 4.00	5.85	–	–	–	–	–	–
Cc1ccc(Nc2nc3c(N4CCC[C@H]4CO)ncnc3s2)cc1	< 5.00	–	6.40	6.07	6.50	50	–	–	–	–	–
CN1CCN(c2ncnc3sc(Nc4ccccc4)nc23)CC1	< 5.00	–	< 4.52	5.37	5.55	–	–	–	–	–	–
COc1cc(Nc2nc3c(Cl)ncnc3s2)cc(OC)c1OC	< 5.00	–	< 4.00	5.58	5.98	–	–	–	–	–	–
Brc1cccc(Nc2nc3c(N4CCCC4)ncnc3s2)c1	< 5.00	10	< 4.00	5.89	6.61	–	> 150	–	–	–	–
Cc1ccc(Nc2nc3c(Cl)ncnc3s2)cc1	< 5.00	–	< 4.00	5.33	5.31	–	–	–	–	–	–
c1ccc(Nc2nc3c(N4CCNCC4)ncnc3s2)cc1	< 5.00	–	< 4.52	< 5.00	5.04	–	–	–	–	–	–
Clc1ccc(Nc2nc3c(Cl)ncnc3s2)cc1	< 5.00	–	4.60	5.31	5.57	–	–	–	–	–	–
COc1cc(Nc2nc3c(N4CCCC4)ncnc3s2)cc(OC)c1OC	< 5.00	10	< 4.00	5.89	6.99	–	–	12	> 100	–	–
CN(C)c1ncnc2sc(Nc3ccccc3)nc12	< 5.00	–	< 4.00	5.89	5.90	–	–	–	–	–	–

SMILES	pKi (Adenosine receptor A2b)	Efficacy (Adenosine receptor A2a [1]) [%]	pKi (Adenosine receptor A1)	pKi (Adenosine receptor A3)	pKi (Adenosine receptor A2a [2])	Efficacy (Adenosine receptor A2a [3]) [%]	solubility thermodynamic [4] [µg/mL]	Ratio Ki (CHO [5])	Ratio Ki (CHO [6])	solubility thermodynamic [7] [µg/mL]	solubility thermodynamic [8] [µg/mL]
O=[N+]([O-])c1ccc(Nc2nc3c(N4CCCC4)ncnc3s2)cc1	< 5.00	–	< 4.52	5.44	5.50	–	–	–	–	–	–
c1ccc(Nc2nc3c(N4CCCCC4)ncnc3s2)cc1	< 5.00	–	< 4.52	4.92	6.01	–	–	–	–	–	–
CN1CCN(c2ncnc3sc(Nc4ccc(Cl)cc4)nc23)CC1	< 5.00	–	< 4.00	< 5.00	< 4.00	–	–	–	–	–	–
Clc1ccc(Nc2nc3c(N4CCCCC4)ncnc3s2)cc1	< 5.00	–	< 4.00	4.74	4.88	–	–	–	–	–	–
OC[C@@H]1CCCN1c1ncnc2sc(Nc3cccc(Br)c3)nc12	< 5.00	–	6.28	5.97	6.82	50	160 (≈ 0.394 mM)	3	3	–	–
c1ccc(Nc2nc3c(N4CCOCC4)ncnc3s2)cc1	< 5.00	–	< 4.00	5.35	6.48	–	–	13	> 3000	–	–
CCN1CCN(c2ncnc3sc(Nc4ccccc4)nc23)CC1	< 5.00	–	< 4.00	< 4.52	5.08	–	–	–	–	–	–
COc1cc(Nc2nc3c(N4CCC[C@H]4CO)ncnc3s2)cc(OC)c1OC	< 5.00	–	6.01	5.84	6.48	50	–	–	–	–	–
CN(C)c1ncnc2sc(Nc3ccc(Cl)cc3)nc12	< 5.00	–	< 4.00	< 5.00	< 4.00	–	–	–	–	–	–
c1ccc(Nc2nc3c(N4CCC(N5CCCCC5)CC4)ncnc3s2)cc1	< 5.00	–	< 4.00	< 4.00	< 4.00	–	–	–	–	–	–
S=C(NCc1ccccc1)N(Cc1ccccc1)c1nc2c(Cl)ncnc2s1	< 5.00	–	< 4.52	–	5.73	–	–	–	–	–	–
COc1ccc(Nc2nc3c(Cl)ncnc3s2)cc1	< 5.00	–	4.94	5.23	5.45	–	–	–	–	–	–
Cc1ccc(Nc2nc3c(N4CCCC4)ncnc3s2)cc1	< 5.00	10	< 4.00	6.25	6.01	–	> 150	–	–	–	–
Fc1cccc(F)c1Nc1nc2c(N3CCCC3)ncnc2s1	< 5.00	10	5.64	5.50	5.65	–	–	–	–	–	–
O=C(Nc1nc2c(Cl)ncnc2s1)c1ccccc1	< 5.00	–	5.14	5.13	5.82	–	–	–	–	–	–
OC[C@@H]1CCCN1c1ncnc2sc(Nc3ccccc3)nc12	< 5.00	–	6.26	6.01	6.70	50	4300 (≈ 13.1 mM)	3	3	3500 (≈ 10.7 mM)	4800 (≈ 14.7 mM)
OC[C@@H]1CCCN1c1ncnc2sc(Nc3c(F)cccc3F)nc12	< 5.00	–	5.10	5.47	5.49	50	–	–	–	–	–
O=[N+]([O-])c1ccc(Nc2nc3c(Cl)ncnc3s2)cc1	< 5.00	–	< 4.52	5.10	< 4.52	–	–	–	–	–	–
Clc1ncnc2sc(Nc3ccccc3)nc12	< 5.00	–	< 4.00	5.44	5.82	–	–	–	–	–	–
